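Briefly, cells in 96-well plates were exposed to five compound concentrations for 48 h, and endpoints were estimated by linear interpolation. GI50: concentration for 50% inhibition of growth.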 The source made the active and inactive calls. Cut-off read from the data, not from the text of the source: active = GI50 up to about 1.1 µM and inactive = higher.
How the values were obtained:
Assay in all cases: NCI anticancer screen, dose series, 48 h
M19-MEL = test system: M19-MEL
DLD-1 = test system: DLD-1
XF498 = test system: XF498
HOP-18 = test system: HOP-18
RXF 631 = test system: RXF 631
SNB-78 = test system: SNB-78
DMS-273 = test system: DMS-273
DMS-114 = test system: DMS-114

Measured: GI50

CCOC(=O)C(=O)Nc1c(C(C)C)cccc1C(C)C
inactive: M19-MEL > 100 µM | DLD-1 > 100 µM | XF498 54.6 µM | HOP-18 > 100 µM | RXF 631 > 100 µM | SNB-78 > 100 µM | DMS-273 > 100 µM | DMS-114 > 100 µM

Cc1cc(C)nc(Sc2c([N+](=O)[O-])ncn2C)n1
inactive: M19-MEL > 100 µM | DLD-1 > 100 µM | XF498 > 100 µM | HOP-18 20.6 µM | RXF 631 > 100 µM | SNB-78 > 100 µM | DMS-273 > 100 µM | DMS-114 > 100 µM

O=[N+]([O-])c1ccc(-c2csc(=[N+]3CCCCC3)s2)cc1
inactive: M19-MEL 10.7 µM | DLD-1 18.3 µM | XF498 19.5 µM | HOP-18 > 100 µM | RXF 631 87.5 µM | SNB-78 44.1 µM | DMS-273 28.8 µM | DMS-114 2.13 µM
